Entries after “also recorded” stand apart in the source; their conditions may differ.
Tests used:
[1] = test system: HO-1 mRNA; assay: Induction of HO-1 mRNA in rat astroglia by cysteamine treatment (Northern blot); type: cell-based; details: rat astroglia grown in standard culture media, CSH 880 μM x 6 hr
Experimental: (§1) Brain cell cultures: Rat astroglia were prepared as described in Schipper et al. (1999), herein incorporated by reference, as follows:
(§2) Pregnant Sprague-Dawley rats were obtained from Charles River Breeding Farms. Primary neural cell cultures were prepared from 1-day old neonates by mechanoenzymatic dissociation of cerebral tissue […] as previously described by Chopra et al., (1997), herein incorporated by reference. Cells were grown in Ham's F-12 and high-glucose DMEM (50:50 vol/vol) supplemented with 10 mM HEPES. 5% heat-inactivated horse serum, 5% heat-inactivated fetal bovine serum, and penicillin/streptomycin (50 U/ml and 50 μg/ml, respectively). […] The cultures were then incubated under the above-mentioned conditions for 6 days, at which time >98% of the cells composing the monolayer were astroglia, as determined by immunohistochemical labeling for the astrocyte-specific marker glial fibrillary acidic protein, as described by Chopra et al. (1995), herein incorporated by reference. […]
(§3) RNA isolation and Northern analysis: Cultured astrocytes were harvested using a rubber policeman, and cytoplasmic RNA was isolated using an acid guanidinium thiocyanate/phenol/chloroform extraction method, as described by Chomczynski and Sacchi (1987), herein incorporated by reference. […] Resulting bands on the autoradiograph were analyzed using a phosphorimager S1 densitometer. […]

[2] = test system: HO-1 mRNA; assay: HOS bioassay: effect of 24 h pre-incubation with plasma or plasma fractions on the induced HO-1 mRNA response of rat astroglia (Northern blot); type: cell-based; details: normal subjects taking antioxidants; vitamin E 400 U/day (N1); multiple very high-dose antioxidants (N2, N3)
Experimental: as §1, §2, §3

For NCCS [Cysteamine], the “HO-1 mRNA bands after cysteamine (CSH) treatment” value [1] was “induces strong HO-1 mRNA bands; also recorded: induces robust HO-1 mRNA bands” and the “HO-1 mRNA bands after cysteamine (CSH) treatment” value ([1]; listed as CSH) was “intense HO-1 mRNA signal”.
vitamin E was tested, and the “astrocyte HO-1 mRNA response to CSH with plasma of normal subjects on antioxidants” value [2] was “does not affect”.

From patent US7105485B2, “HO-1 suppressor as a diagnostic and prognostic test for dementing diseases” (The Sir Mortimer B. Davis - Jewish General Hospital, priority 2000, dated 2006)
